Results taken from ChEMBL document CHEMBL5143528, “Heat shock protein 90 (Hsp90)/Histone deacetylase (HDAC) dual inhibitors for the treatment of azoles-resistant Candida albicans” (Eur J Med Chem, 2022).
The source made the active and inactive calls. The rule behind the calls is not given here.

Experiments:
Candida albicans [1] = assay type: functional, 0304103; conditions: time 48 hrs
Description: Synergistic antifungal activity against azole-resistant Candida albicans 0304103 assessed as fractional inhibitory concentration in presence of fluconazole incubated for 48 hrs by CLSI based checkerboard microdilution assay

Candida albicans [2] = assay type: functional, 0304103; conditions: time 48 hrs; remark: listed apart in the source
Description: Synergistic antifungal activity against azole-resistant Candida albicans 0304103 assessed as fractional inhibitory concentration incubated for 48 hrs by CLSI based checkerboard microdilution assay

A549 = experiment: Cytotoxicity against human A549 cells assessed as inhibition of cell growth; assay type: functional, cell-based
Candida albicans [3] = assay type: functional, 0304103; conditions: time 48 hrs; remark: listed apart in the source
Description: Synergistic antifungal activity against azole-resistant Candida albicans 0304103 assessed as fractional inhibitory concentration index in presence of fluconazole incubated for 48 hrs by CLSI based checkerboard microdilution assay

HEL = experiment: Cytotoxicity against human HEL cells assessed as inhibition of cell growth; assay type: functional, cell-based
Candida albicans [4] = experiment: microbe, parasite or virus in culture; assay type: functional; conditions: 0304103, time 48 hrs
Description: Antifungal activity against azole-resistant Candida albicans 0304103 assessed as fungal growth inhibition incubated for 48 hrs by CLSI based checkerboard microdilution assay

Candida albicans [5] = experiment: Upregulation of ERG11 expression in azole-resistant Candida albicans 0304103 at 8 ug/ml by RT-PCR analysis; assay type: functional; conditions: dose 8.0 µg/ml
[6] = Cytotoxicity against human HaCaT cells assessed as inhibition of cell growth; assay type: toxicity, cell-based
Candida albicans [7] = experiment: Antifungal activity against azole-resistant Candida albicans 0304103 infected in ICR mouse assessed as reduction in fungal burden in kidney at 10 mg/kg, ip administered once daily for 5 days in presence of fluconazole; assay type: functional, organism-based; conditions: time 5.0 day
Histone deacetylase = assay type: protein assay, Homo sapiens
Candida albicans [8] = experiment: Inhibition of biofilm formation in azole-resistant Candida albicans 0304103 assessed as downregulation of HWP1 expression at 64 ug/ml by RT-PCR analysis; assay type: functional, organism-based; conditions: dose 64.0 µg/ml
Candida albicans [9] = experiment: Antifungal activity against azole-resistant Candida albicans 0304103 infected in ICR mouse assessed as assessed as reduction in fungal burden in kidney by measuring reduction in fungal invasion at 10 mg/kg, ip administered once daily for 5 days in presence of fluconazole by Periodic acid-Schiff staining based analysis; assay type: functional, organism-based; conditions: time 5.0 day
Candida albicans [10] = experiment: Inhibition of biofilm formation in azole-resistant Candida albicans 0304103 assessed as downregulation of EAP1 expression at 64 ug/ml by RT-PCR analysis; assay type: functional, organism-based; conditions: dose 64.0 µg/ml
Candida albicans [11] = experiment: Antifungal activity against azole-resistant Candida albicans 0304103 infected in ICR mouse assessed as reduction in fungal burden in kidney by measuring smooth kidney tissue at 10 mg/kg, ip administered once daily for 5 days in presence of fluconazole by Periodic acid-Schiff staining based analysis; assay type: functional, organism-based; conditions: time 5.0 day
Candida albicans [12] = experiment: Inhibition of biofilm formation in azole-resistant Candida albicans 0304103 assessed as downregulation of BCR1 expression at 64 ug/ml by RT-PCR analysis; assay type: functional, organism-based; conditions: dose 64.0 µg/ml
Candida albicans [13] = experiment: Antifungal activity against azole-resistant Candida albicans 0304103 infected in ICR mouse assessed as reduction in fungal burden in kidney by measuring neat and dense arrangement of cells at 10 mg/kg, ip administered once daily for 5 days in presence of fluconazole by Periodic acid-Schiff staining based analysis; assay type: functional, organism-based; conditions: time 5.0 day
Candida albicans [14] = experiment: Downregulation of CDR1 expression in azole-resistant Candida albicans 0304103 at 8 ug/ml in presence of fluconazole by RT-PCR analysis; assay type: functional; conditions: dose 8.0 µg/ml
[15] = Inhibition of fungal HSP90 incubated for 6 hrs in presence of FITC-Geldanamycin by fluorescence polarization analysis; design: species or system Fungi
Heat shock protein HSP90 = Heat shock protein HSP90 (Homo sapiens, UniProt P07900+P08238); experiment: Inhibition of human HSP90; assay type: protein assay
[16] = Inhibition of fungal HDAC using Boc-Lys (acetyl)-AMC as substrate preincubated for 12 hrs followed by substrate addition and measured after 6 hrs by fluorescence-based analysis; design: species or system Fungi
Candida albicans [17] = experiment: Inhibition of biofilm formation in azole-resistant Candida albicans 0304103 at 64 ug/ml incubated for 24 hrs by XTT reduction assay; assay type: functional, organism-based; conditions: dose 64.0 µg/ml
Candida albicans [18] = experiment: Inhibition of biofilm formation in azole-resistant Candida albicans 0304103 assessed as downregulation of […] expression at 64 ug/ml by RT-PCR analysis; assay type: functional, organism-based; conditions: dose 64.0 µg/ml
Candida albicans [19] = experiment: Downregulation of ERG11 expression in azole-resistant Candida albicans 0304103 at 8 ug/ml in presence of fluconazole by RT-PCR analysis; assay type: functional; conditions: dose 8.0 µg/ml
[20] = Toxicity in ICR mouse infected with azole-resistant Candida albicans 0304103 assessed as reduction in survival time at 10 mg/kg, ip administered once daily for 5 days; assay type: organism-based; conditions: in vivo, 120 h, time 5 day

Row | SMILES | FIC (Candida albicans [1]) [µg/mL] | FIC (Candida albicans [2]) [µg/mL] | IC50 (A549) [µM] | fractional inhibitory concentration index (FICI) (Candida albicans [3]) | IC50 (HEL) [µM] | MIC80 (Candida albicans [4]) [µg/mL] | other results
1 | CC(C)c1cc(-c2n[nH]c(=O)n2-c2cccc(C(=O)NCCCC(=O)NO)c2)c(O)cc1O | 64 | 64 | 4.6 | 2 | 4.6 | > 64 | –
2 | CC(C)c1cc(-c2n[nH]c(=O)n2-c2ccc(NC(=O)CCCC(=O)NO)cc2)c(O)cc1O | 1 | 4 | 0.024 | 0.078 | 0.024 | > 64 | –
3 | OC(Cn1cncn1)(Cn1cncn1)c1ccc(F)cc1F | – | – | – | – | – | – | Activity (Candida albicans [5]): Active
4 | CC(C)c1cc(-c2n[nH]c(=O)n2-c2cccc(NC(=O)CCCCCC(=O)NO)c2)c(O)cc1O | 32 | 64 | 1.6 | 1.5 | 1.6 | > 64 | –
5 | CC(C)c1cc(-c2n[nH]c(=O)n2-c2cccc(C(=O)NCCCCCC(=O)NO)c2)c(O)cc1O | 64 | 16 | 4.6 | 1.25 | 4.6 | > 64 | –
6 | CNC(=O)CCCCCCCNC(=O)c1cccc(-n2c(-c3cc(C(C)C)c(O)cc3O)n[nH]c2=O)c1 | 2 | 8 | 4.6 | 0.156 | 4.6 | > 64 | IC50 [6]: > 6.13 µM
7 | CC(C)c1cc(-c2n[nH]c(=O)n2-c2ccc(NC(=O)CCCCCCC(=O)NO)cc2)c(O)cc1O | 4 | 8 | 0.024 | 0.188 | 0.024 | > 64 | –
8 | CC(C)c1cc(-c2n[nH]c(=O)n2-c2ccc(C(=O)NCCCCCCCC(=O)NO)cc2)c(O)cc1O | 1 | 16 | 4.6 | 0.266 | 4.6 | > 64 | Activity (Candida albicans [7]): Active; IC50 (Histone deacetylase): 3 µM; inhibition (Candida albicans [8]): Active; Activity (Candida albicans [9]): Active; inhibition (Candida albicans [10]): Active; Activity (Candida albicans [11]): Active; inhibition (Candida albicans [12]): Active; Activity (Candida albicans [13]): Active; Activity (Candida albicans [14]): Active; IC50 [15]: 0.83 µM; IC50 (Heat shock protein HSP90): 19.52 µM; IC50 [16]: 0.91 µM; inhibition (Candida albicans [17]): Active; IC50 [6]: > 6.13 µM; inhibition (Candida albicans [18]): Active; Activity (Candida albicans [19]): Active
9 | CC(C)c1cc(-c2n[nH]c(=O)n2-c2cccc(C(=O)NCCCCCCC(=O)NO)c2)c(O)cc1O | 1 | 8 | 4.6 | 0.141 | 4.6 | > 64 | inhibition (Candida albicans [8]): Active; inhibition (Candida albicans [10]): Active; inhibition (Candida albicans [12]): Active; inhibition (Candida albicans [17]): Active; IC50 [6]: > 6.13 µM; inhibition (Candida albicans [18]): Active
10 | CC(C)c1cc(-c2n[nH]c(=O)n2-c2ccc(C(=O)NCCCCC(=O)NO)cc2)c(O)cc1O | 8 | 4 | 4.6 | 0.188 | 4.6 | > 64 | –
11 | O=C(CCCCCCC(=O)Nc1ccccc1)NO [VORINOSTAT] | – | – | – | – | – | – | IC50 [16]: 3.6 µM; Activity [20]: Toxic; IC50 [6]: 1.85 µM
12 | CC(C)c1cc(-c2n[nH]c(=O)n2-c2ccc(NC(=O)CCCCC(=O)NO)cc2)c(O)cc1O | 16 | 16 | 0.024 | 0.5 | 0.024 | > 64 | –
13 | CC(C)c1cc(-c2n[nH]c(=O)n2-c2cccc(NC(=O)CCCCC(=O)NO)c2)c(O)cc1O | 32 | 64 | 1.6 | 1.5 | 1.6 | > 64 | –
14 | CC(C)c1cc(-c2n[nH]c(=O)n2-c2cccc(NC(=O)CCCCCCC(=O)NO)c2)c(O)cc1O | 2 | 8 | 1.6 | 0.156 | 1.6 | > 64 | –
15 | CC(C)c1cc(-c2n[nH]c(=O)n2-c2ccc(C(=O)NCCCCCCC(=O)NO)cc2)c(O)cc1O | 1 | 16 | 4.6 | 0.266 | 4.6 | > 64 | –
16 | CC(C)c1cc(-c2n[nH]c(=O)n2-c2cccc(C(=O)NCCCCC(=O)NO)c2)c(O)cc1O | 64 | 16 | 4.6 | 1.25 | 4.6 | > 64 | –
17 | CC(C)c1cc(-c2n[nH]c(=O)n2-c2ccc(C(=O)NCCCCCC(=O)NO)cc2)c(O)cc1O | >64 | >64 | 4.6 | 2 | 4.6 | > 64 | –
18 | CC(C)c1cc(-c2n[nH]c(=O)n2-c2ccc(C(=O)NCCCC(=O)NO)cc2)c(O)cc1O | 1 | 16 | 4.6 | 0.266 | 4.6 | > 64 | –
19 | CC(C)c1cc(-c2n[nH]c(=O)n2-c2ccc3c(ccn3C)c2)c(O)cc1O [GANETESPIB] | 1 | 0.5 | – | – | – | > 64 | IC50 [15]: 0.66 µM; Activity [20]: Toxic; IC50 [6]: < 0.015 µM
20 | CC(C)c1cc(-c2n[nH]c(=O)n2-c2ccc(NC(=O)CCCCCC(=O)NO)cc2)c(O)cc1O | 8 | 8 | 0.024 | 0.25 | 0.024 | > 64 | –
